Patent US12011517B2, “Air freshening product” (The Procter & Gamble Company, priority 2019, dated 2024)

In the case of `CCCCCCC/C=C/C=O` [(E)-2-Decen-1-al], the “Average Vapor Pressure (Torr) at 25 degrees Celsius” value is reported as 0.0674 Torr.
For `CCC/C=C/C=O` [(E)-2-Hexen-1-al], the “Average Vapor Pressure (Torr) at 25 degrees Celsius” value was 10.7 Torr.
